Laboratory results taken from patent US20240350443A1, “COMPOSITION, FORMULATION, PREPARATION METHOD AND USE FOR GLUTATHIONE PRECURSOR” (priority 2021, published 2024).
Marks after values point to notes of the source that are not given here.

Legend:
Assay type in all cases: in vivo, Kunming mice
alcoholic liver damage [1] = assay: Liver protection function experiment: MDA, reduced GSH and TG in liver homogenates
Excerpt: In the experiment, the auxiliary protection effect of the composition of the present disclosure on alcoholic liver damage was researched by detecting three indicators of liver malondialdehyde (MDA) content, reduced glutathione (GSH) and triglyceride (TG) and histopathologic examination (wherein the lower the MDA and TG contents were, the higher the GSH content was, the better the liver protection effect was). If the three indicators of the liver MDA, the reduced GSH and the TG were positive, or any two of the three indicators of the liver MDA, the reduced GSH and the TG were positive and the histopathological examination result was positive, the composition could be determined to have the auxiliary protection effect on alcoholic liver damage.
Test animals were as follows: male SPF-grade Kunming mice aged 5 to 6 weeks, with body weights of 18-22 g, available from Hubei Provincial Laboratory Animal Public Service Center, Hubei, China [certification No.: SCXK (E) 2020-0018].
The experimental method was as follows: 117 mice were randomly divided into 9 groups, namely a blank control group, a model control group and experimental groups 1-7 (the formula of the test samples was referred to the formula of the experimental groups 1-7), with 13 mice in each group.
Distilled water was given to the blank control group and the model control group, corresponding test substances (the dose of acetylcysteine or cysteine agent in each test substance was 500 mg/kg BW) were given to each experimental group according to the formula, and the intragastric capacity was 20 mL/kg BW. On day 30 of the experiment, the mice of the model control group and each experimental group were intragastrically administered with 14 mL/kg BW of 50% ethanol once, and distilled water with equal volume was given to the blank control group, and then the mice were fasted for 16 hours. The mice were sacrificed by cervical dislocation after weighing.
0.5 g of liver was taken and added with normal saline to prepare a liver homogenate, and then the MDA, reduced GSH and TG were detected. The detection method and the calculation method for the MDA and reduced GSH were described according to the instruction of a kit from NanJing JianCheng Bioengineering Institute, and the TG was detected by using the Beckman Coulter AU680 Chemistry Analyzer.

alcoholic liver damage [2] = assay: Liver protection function experiment: liver histopathology score (lipid droplets); details: alcoholic liver damage mice; score 0-4 points per field; x ± s, 13 mice
Method: Distilled water was given to the blank control group and the model control group, corresponding test substances (the dose of acetylcysteine or cysteine agent in each test substance was 500 mg/kg BW) were given to each experimental group according to the formula, and the intragastric capacity was 20 mL/kg BW. On day 30 of the experiment, the mice of the model control group and each experimental group were intragastrically administered with 14 mL/kg BW of 50% ethanol once, and distilled water with equal volume was given to the blank control group, and then the mice were fasted for 16 hours. The mice were sacrificed by cervical dislocation after weighing. […]
The areas of the fields of view occupied by various lesions in each field of view were respectively recorded, and the total lesion scores of the observed fields of view were accumulated. […]

aged mice = assay: Oxidation resistance function experiment in aged mice; details: x ± s, n = 13
Excerpt: In the experiment, the oxidation resistance effect of the composition was researched by detecting four indicators of MDA, protein carbonyl, antioxidant enzyme activity (GSH-PX or SOD) and reduced GSH content. If three of the four indicators were positive, the composition could be determined to have the oxidation resistance effect.
Test animals were as follows: male SPF-grade Kunming mice aged over 10 months, with body weights of 40-60 g, available from Hubei Provincial Laboratory Animal Public Service Center, Hubei, China [certification No.: SCXK (E) 2020-0018].
The experimental method was as follows: 104 mice were randomly divided into 8 groups, namely, a negative control group and experimental groups 1-7 (i.e., the formula of the test samples adopted the formula of the above experimental groups 1-7), with 13 mice in each group.
Distilled water was given to the blank control group, corresponding test substances (the dose of acetylcysteine or cysteine agent in each test substance was 500 mg/kg BW) were given to each experimental group, and the intragastric capacity was 20 mL/kg BW. After 30 days of continuous intragastric administration, blood was sampled from the inner canthus of each group of animals, a hemolysate was prepared, and the MDA content and the glutathione peroxidase (GSH-PX) activity were detected; the animals were sacrificed and the livers were taken as homogenates, 10% liver homogenates were prepared for reduced GSH and protein carbonyl determination, and 1% liver homogenates were prepared for superoxide dismutase (SOD) activity determination. Each detection kit was available from NanJing JianCheng Bioengineering Institute.

humoral immune function = assay: Humoral immune function: antibody-producing cells and serum hemolysin level; details: mice; 500 mg/kg BW intragastric; x ± s, n = 10
Excerpt: (§1) In the experiment, the effect of the composition on the immune system of mice was researched from four aspects of cellular immune function, humoral immune function, monocyte-macrophage function and NK cell activity.
(§2) Test animals were as follows: male SPF-grade Kunming mice aged 4 weeks, with body weights of 18-22 g, available from Hubei Provincial Laboratory Animal Public Service Center, Hubei, China [certification No.: SCXK (E) 2020-0018].
(§3) The experimental method was as follows: 400 mice were randomly divided into 5 groups, with 80 mice in each group, and each group was subjected to 5 kinds of immunoassays including body weight and organ/body ratio measurement, cellular immune function measurement, humoral immune function measurement, monocyte-macrophage function measurement, and NK cell activity measurement. For each immunoassay, 80 mice were tested and divided into 8 groups, namely a negative control group and experimental groups 1-7, with 10 mice in each group; distilled water was given to the negative control group, corresponding test substances (the dose of acetylcysteine or cysteine agent in each test substance was 500 mg/kg BW) were given to each experimental group, and the intragastric capacity was 20 mL/kg BW.

[3] = tested on: mouse peritoneal macrophages; assay: Phagocytosis of chicken erythrocytes by mouse peritoneal macrophages; details: x ± s, n = 10
Excerpt: as §1, §2, §3

immune system of mice = assay: Immunity enhancement function, overall determination; details: any two of four aspects positive
[4] = alcoholic liver damage mice, 500 mg/kg BW acetylcysteine or cysteine intragastric, 30 days, x ± s, 13 mice
[5] = 10% liver homogenates of aged mice, 30 days

CC(=O)N[C@@H](CS)C(=O)O [Experimental group 1, N-acetylcysteine]
Auxiliary protection effect on alcoholic liver damage (determination) (alcoholic liver damage [1]; Technical Specification for Inspection and Evaluation of Health Food (2003 edition)): had an auxiliary protection effect on alcoholic liver damage | MDA in liver homogenates (alcoholic liver damage [1]; [4]): 0.98 ± 0.28^bc nmol/mgprot | Reduced GSH in liver homogenates (alcoholic liver damage [1]; [4]): 34.55 ± 9.48^bc mg/gprot | TG in liver homogenates (alcoholic liver damage [1]; [4]): 1.52 ± 0.64^bc mmol/L | Liver histopathology score (fatty degeneration of hepatocytes) (alcoholic liver damage [2]): 1.46 ± 1.05^bc | SOD (aged mice; 1% liver homogenates of aged mice, 30 days): 338.4 ± 44.9^bc U/mgprot | MDA (aged mice; 2% hemolysates of aged mice, 500 mg/kg BW intragastric 30 days): 17.88 ± 2.55^bc nmol/ml | GSH (aged mice; [5]): 30.05 ± 6.08^a mg/gprot | Protein carbonyl (aged mice; [5]): 1.33 ± 0.35^ab nmol/mgprot | GSH-PX (aged mice; hemolysate of aged mice, 30 days): 585.2 ± 24.2^a U/ml | Number of hemolytic plaques (N)/number of whole splenocytes (humoral immune function): 161.71 ± 11.52^c | Phagocytic rate, phagocytosis of chicken erythrocytes [3]: 33.88 ± 2.48^b % | Immunity enhancement effect (determination) (immune system of mice): had the immunity enhancement effect
